The source of these data is patent publication US20240199558A1, “2,4,6-TRISUBSTITUTED 1,3,5-TRIAZINES AS MODULATORS OF CX3CR1” (ASTRAZENECA AB, priority 2022, published 2024).

pIC50: −log10 of the molar value.

Assay [1] addresses T1, CX3CR1 (Homo sapiens (Human), UniProt P49238). Kind of assay: hCX3CR1 [125I]-CX3CL1 displacement binding (SPA). The following applies: CHO-hCX3CR1 membranes, [125I]-CX3CL1, SPA beads. The protocol: hCX3CR1 [^125I]-CX3CL1 Displacement Binding (SPA)
CHO-hCX3CR1 membranes (3 μg per well) together with […] [^125I]-CX3CL1 (Perkin Elmer) and different concentrations of competitor compound were incubated together with 400 μg/well WGA coated PVT SPA beads (Perkin Elmer) in 50 mM HEPES (pH 7.4), 10 mM MgCl2, 1 mM EDTA and 0.1% Gelatin in a Greiner polystyrene flat-bottom 384-well plate. The plate was incubated for 20 h at room temperature before the radioactivity was measured using a MicroBeta Trilux reader (PerkinElmer). The DMSO concentration was held constant at 1%.

Assay [2] has as its target T1, CX3CR1. Kind of assay: hCX3CR1 [3H]-AZD8797 competitive binding assay (filter). Conditions: CHO-hCX3CR1 membranes, 2 nM [3H]-AZD8797. In a few lines: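 CHO-hCX3CR1 membranes (9 μg/well) were incubated 2 h at room temperature with 2 nM [3H]-AZD8797 and varying competitor concentrations. Buffer: 25 mM HEPES pH 7.4, 10 mM MgCl2, 1 mM CaCl2, 0.5% BSA, 1% DMSO. Bound ligand was collected by vacuum filtration, washed in ice-cold buffer with 500 mM NaCl, and counted by scintillation.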

T1 sequence (P49238 whole entry): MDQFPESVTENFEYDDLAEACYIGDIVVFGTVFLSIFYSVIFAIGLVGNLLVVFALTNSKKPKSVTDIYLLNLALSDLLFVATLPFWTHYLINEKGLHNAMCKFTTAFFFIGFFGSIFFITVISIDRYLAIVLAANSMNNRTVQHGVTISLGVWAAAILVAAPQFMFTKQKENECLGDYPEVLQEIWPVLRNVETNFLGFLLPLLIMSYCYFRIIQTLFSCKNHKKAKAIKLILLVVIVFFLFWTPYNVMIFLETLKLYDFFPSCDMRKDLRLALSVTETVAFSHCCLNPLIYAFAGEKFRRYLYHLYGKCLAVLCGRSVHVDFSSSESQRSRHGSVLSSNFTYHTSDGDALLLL

What is called pIC50 is the IC50 on a negative log10 scale, so that one unit is a factor of ten. Read a low pIC50 as a large IC50. Consider `COc1cc(C)c([C@H](C)Cc2nc(N[C@@H](CO)CC(C)C)nc(NS(C)(=O)=O)n2)cn1` (single isomer, unassigned) [Example 13, N-(4-(((R)-1-Hydroxy-4-methylpentan-2-yl)amino)-6-((R*)-2-(6-methoxy-4-methylpyridin-3-yl)propyl)-1,3,5-triazin-2-yl)methanesulfonamide], for which the pIC50 was 5.37 at CX3CR1 [1] and 6.21 at CX3CR1 [2].

On to `COc1ncc([C@@H](C)Cc2nc(N[C@@H](CO)CC(C)C)nc(NS(C)(=O)=O)n2)cc1Cl` (single isomer, unassigned) [Example 10, N-(4-((S*)-2-(5-Chloro-6-methoxypyridin-3-yl)propyl)-6-(((R)-1-hydroxy-4-methylpentan-2-yl)amino)-1,3,5-triazin-2-yl)methanesulfonamide], for which the pIC50 at CX3CR1 [1] is under 4.70; on CX3CR1 [2], 6.04.

Turning to `CC(C)C[C@H](CO)Nc1nc(C[C@H](C)c2ccnc(Cl)c2)nc(NS(C)(=O)=O)n1` (single isomer, unassigned) [Example 25, N-(4-((S*)-2-(2-Chloropyridin-4-yl)propyl)-6-(((R)-1-hydroxy-4-methylpentan-2-yl)amino)-1,3,5-triazin-2-yl)methanesulfonamide], the negative-log IC50 (pIC50) on CX3CR1 [1] was 4.87; at CX3CR1 [2], 5.87.

For the compound `CC(C)C[C@H](CO)Nc1nc(C[C@H](C)c2cnc(C3CC3)nc2)nc(NS(C)(=O)=O)n1` (single isomer, unassigned) [Example 11, N-(4-((S*)-2-(2-Cyclopropylpyrimidin-5-yl)propyl)-6-(((R)-1-hydroxy-4-methylpentan-2-yl)amino)-1,3,5-triazin-2-yl)methanesulfonamide], the pIC50 at CX3CR1 [1] is under 4.52; on CX3CR1 [2], under 5.00.

As to `COc1ncc([C@@H](C)Cc2nc(N[C@@H](CO)CC(C)C)nc(NS(C)(=O)=O)n2)cc1C` (single isomer, unassigned) [Example 16, N-(4-(((R)-1-Hydroxy-4-methylpentan-2-yl)amino)-6-((S*)-2-(6-methoxy-5-methylpyridin-3-yl)propyl)-1,3,5-triazin-2-yl)methanesulfonamide], the results for the negative-log IC50 (pIC50) on CX3CR1 [1] and at CX3CR1 [2] were under 4.52 and 5.31, respectively.

For `CC(C)C[C@H](CO)Nc1nc(C[C@@H](C)c2ccc(Cl)cc2F)nc(NS(C)(=O)=O)n1` (single isomer, unassigned) [Example 84, N-(4-((R*)-2-(4-Chloro-2-fluorophenyl)propyl)-6-(((R)-1-hydroxy-4-methylpentan-2-yl)amino)-1,3,5-triazin-2-yl)methanesulfonamide], the pIC50 at CX3CR1 [1] was 6.46; on CX3CR1 [2], 6.76.

Consider `COc1ncccc1[C@H](C)Cc1nc(N[C@@H](CO)CC(C)C)nc(NS(C)(=O)=O)n1` (single isomer, unassigned) [Example 17, N-(4-(((R)-1-Hydroxy-4-methylpentan-2-yl)amino)-6-((R*)-2-(2-methoxypyridin-3-yl)propyl)-1,3,5-triazin-2-yl)methanesulfonamide], for which the pIC50 on CX3CR1 [1] was 5.36; at CX3CR1 [2], 6.51.

Turning to `CCOc1cc(C(C)Cc2nc(N[C@@H](CO)CC(C)C)nc(NS(C)(=O)=O)n2)ccn1` (stereo partly drawn) [Example 67, N-(4-(2-(2-Ethoxypyridin-4-yl)propyl)-6-(((R)-1-hydroxy-4-methylpentan-2-yl)amino)-1,3,5-triazin-2-yl)methanesulfonamide], the pIC50 at CX3CR1 [1] was 5.74; at CX3CR1 [2], 6.44.

Regarding `CC(C)C[C@H](CO)Nc1nc(C[C@H](C)c2cccc(Cl)c2F)nc(NS(C)(=O)=O)n1` (single isomer, unassigned) [Example 3, N-(4-((S*)-2-(3-Chloro-2-fluorophenyl)propyl)-6-(((R)-1-hydroxy-4-methylpentan-2-yl)amino)-1,3,5-triazin-2-yl)methanesulfonamide], the pIC50 on CX3CR1 [1] is 6.35; on CX3CR1 [2], 6.91.

With `CC(C)C[C@H](CO)Nc1nc(C[C@H](C)c2ccc(F)cc2F)nc(NS(C)(=O)=O)n1` (single isomer, unassigned) [Example 5, N-(4-((S*)-2-(2,4-Difluorophenyl)propyl)-6-(((R)-1-hydroxy-4-methylpentan-2-yl)amino)-1,3,5-triazin-2-yl)methanesulfonamide], the pIC50 at CX3CR1 [1] was 6.05; on CX3CR1 [2] it was 6.62.

For the compound `CCC(Cc1nc(N[C@@H](CO)CC(C)C)nc(NS(C)(=O)=O)n1)c1ccccc1F` (stereo partly drawn) [Example 89, N-(4-(2-(2-Fluorophenyl)butyl)-6-(((R)-1-hydroxy-4-methylpentan-2-yl)amino)-1,3,5-triazin-2-yl)methanesulfonamide], the pIC50 at CX3CR1 [1] is 6.01; on CX3CR1 [2], 6.60.

Consider `COc1ncc([C@@H](C)Cc2nc(N[C@@H](CO)CC(C)C)nc(NS(C)(=O)=O)n2)cc1F` (single isomer, unassigned) [Example 8, N-(4-((S*)-2-(5-Fluoro-6-methoxypyridin-3-yl)propyl)-6-(((R)-1-hydroxy-4-methylpentan-2-yl)amino)-1,3,5-triazin-2-yl)methanesulfonamide], for which the pIC50 at CX3CR1 [1] is under 4.70; on CX3CR1 [2], 5.87.

Turning to `COc1ncccc1[C@@H](C)Cc1nc(N[C@@H](CO)CC(C)C)nc(NS(C)(=O)=O)n1` (single isomer, unassigned) [Example 18, N-(4-(((R)-1-Hydroxy-4-methylpentan-2-yl)amino)-6-((S*)-2-(2-methoxypyridin-3-yl)propyl)-1,3,5-triazin-2-yl)methanesulfonamide], the pIC50 on CX3CR1 [1] was 4.78; at CX3CR1 [2], 6.12.

On to `COc1ccc([C@@H](C)Cc2nc(N[C@@H](CO)CC(C)C)nc(NS(C)(=O)=O)n2)c(OC)n1` (single isomer, unassigned) [Example 53, N-(4-((S*)-2-(2,6-Dimethoxypyridin-3-yl)propyl)-6-(((R)-1-hydroxy-4-methylpentan-2-yl)amino)-1,3,5-triazin-2-yl)methanesulfonamide], for which the pIC50 at CX3CR1 [1] was 4.96; at CX3CR1 [2], 6.28.

On to `COc1ncc([C@H](C)Cc2nc(N[C@@H](CO)CC(C)C)nc(NS(C)(=O)=O)n2)cc1Cl` (single isomer, unassigned) [Example 9, N-(4-((R*)-2-(5-Chloro-6-methoxypyridin-3-yl)propyl)-6-(((R)-1-hydroxy-4-methylpentan-2-yl)amino)-1,3,5-triazin-2-yl)methanesulfonamide], for which the pIC50 at CX3CR1 [1] was under 5.00; on CX3CR1 [2], 6.69.
